Source: patent US11766434B2, “Pyrimidinone derivatives as CDC7 inhibitors” (Cancer Research Technology Limited, priority 2016, dated 2023)

Columns and labels:
[1] = biological target: Cdc7 (Homo sapiens, UniProt O00311); assay: Cdc7 cell pharmacodynamics assay Method 3: pS53MCM2 levels in SW48 cells; type: cell-based; set-up: endogenous in cells; host or cells: SW48; conditions: 6 hours treatment, read-out: Biomarker Method 3 (pEC50) (converted)
Source text: This protocol describes a method to investigate the inhibition of Cdc7 activity by measuring pS53MCM2 levels in cells, after treatment with compounds.
• SW48 cells • RPMI 1640 (Sigma, R5886) • 10% FCS (Sera Laboratories International Ltd, EU000F Batch: 108005) • 100× L-Glutamine (Invitrogen, 25030-024) • D-Glucose Solution (10%) (Sigma, G8644) • HEPES Buffer Solution (Sigma, 83264) • Sodium Pyruvate (Sigma, S8636) • PBS (Fisger, BP399-4) • Trypsin/EDTA (Invitrogen 25300-054) • 2% BSA in PBS • Cell Extraction Buffer (Invitrogen FNN0011) • Protease inhibitor cocktail (Sigma P-2714) • PMSF 0.3M stock in DMSO (Sigma P7626) • Antibody—rabbit pMCM2 Ser53 (Bethyl #A300-756A) • Antibody—goat MCM2 (Bethyl #A300-122A) • Antibody—goat Anti Rabbit IgG HRP (Perbio Science UK Ltd 31462) • SuperSignal ELISA Pico Chemiluminescent Substrate (Perbio Science UK Ltd 37070) Method • Plate 30,000 SW48 cells per well in standard TC treated 96 well plate in 100 μL complete RPMI 1640 medium. • Allow cells to settle overnight in incubator set at 37° C. and 5% CO2. • Cell treatment: prepare a 384 well plate containing 80 μl PBS/well. The PBS should be at room temperature—to be referred to as intermediate plate. Transfer 2 μL of compound from mother plate to intermediate (daughter plate) 1:40 dilution, then 5 μL intermediate to cell (daughter) plate. • Once all cells are treated place the cells back to the incubator and incubate for 6 hours. • Dilute the capture antibody (total MCM2 #A300-122A) 1 in 250 in the required volume of PBS (5 mL per assay plate, plus 5 mL for dead volume) and add 50 μL to each well of a Hybond plate. Seal the plate and incubate at room temperature for a minimum of 2 hours. • Defrost aliquot of Invitrogen Cell Extraction Buffer (FNN0011) on ice and supplement with appropriate volume of both Sigma protease inhibitor cocktail (P-2714) and PMSF (final cone 1 mM from a 1 M stock in DMSO). • After the 6 hour cell treatment time, tap out the media from the assay plates and place them in the −80° C. freezer for at least 5 minutes. • Remove plates from freezer and add 20 μL of ice cold complete lysis buffer, with the multidrop. Incubate cells for 30 minutes at 4° C. • Add 80 μL per well 2% BSA. • Flick out the remaining liquid from the capture plate and transfer 80 μL from the lysis plate to the same wells in the capture/ELISA plate, using the Biomek. Cover with plate seal and incubate plates overnight at 4° C. • Wash plates with PBS, remove any residual remaining liquid and add 50 μL per well of pMCM2 Ser53 antibody (#A300-756A) diluted 1 in 100 in 2% BSA. Cover plate and incubate at room temperature for 2 hours with gentle shaking. • Wash plates with PBS, remove any residual remaining liquid and Incubate with 50 μL goat anti rabbit antibody (1 in 800 dilution in 2% BSA), for 1 hour at room temperature. • Wash plates with PBS, remove any residual remaining liquid and add 50 μL mixed SuperSignal Pico substrate. • Incubate each plate for 5 minutes at room temperature shielding the plates from direct light (with a cover plate). Read plates with the luminescent detection. Results

[2] = biological target: Cdc7/ASK (Homo sapiens, UniProt O00311); assay: Cdc7 biochemical assay Method 3: off-chip mobility shift assay (MSA) run at Carna Biosciences; set-up: purchased Carna Biosciences; host or cells: baculovirus expression system; conditions: MCM2 peptide 1000 nM, ATP 5 μM, 5 hours, read-out: Biochemical method 3 (pIC50) (converted)
Protocol: This protocol describes a method for assaying Cdc7/ASK for activity. The assay is an off-chip mobility shift assay (MSA) run at Carna Biosciences.
The test compound was dissolved in and diluted with dimethylsulfoxide (DMSO) to achieve 100-fold higher concentration which was specified by the sponsor. Then the solution was further 25-fold diluted with assay buffer to make the final test compound solution. Reference compounds for assay control were prepared similarly. 2. Kinase Cdc7/ASK: Full-length human Cdc7 [1-574(end) amino acids of accession number NP_003494.1] was co-expressed as N-terminal GST-fusion protein (92 kDa) with Dbf4(ASK) [1-674(end) amino acids of accession number NP_006707.1] using baculovirus expression system. GST-Cdc7 was purified by using glutathione sepharose chromatography. 3. Assay Reagents and Procedures Off-Chip Mobility Shift Assay (MSA) • 1) The […] were prepared with assay buffer (20 mM HEPES, 0.01% Triton X-100, 1 mM DTT, pH 7.5) and mixed and incubated in a well of polypropylene 384 well microplate for 5 hours at room temperature. • 2) […] of Termination Buffer (QuickScout Screening Assist MSA; Carna Biosciences) was added to the well. • 3) The reaction mixture was applied to LabChip system (Perkin Elmer), and the product and substrate peptide peaks were separated and quantitated. • 4) The kinase reaction was evaluated by the product ratio calculated from peak heights of product (P) and substrate (S) peptides (P/(P+S)). 4. Reaction Conditions
5. Data Analysis The readout value of reaction control (complete reaction mixture) was set as a 0% inhibition, and the readout value of background (Enzyme(−)) was set as a 100% inhibition, then the percent inhibition of each test solution was calculated. IC50 value was calculated from concentration vs. % Inhibition curves by fitting to a four parameter logistic curve. Results

Sequence of Cdc7 (O00311 whole entry): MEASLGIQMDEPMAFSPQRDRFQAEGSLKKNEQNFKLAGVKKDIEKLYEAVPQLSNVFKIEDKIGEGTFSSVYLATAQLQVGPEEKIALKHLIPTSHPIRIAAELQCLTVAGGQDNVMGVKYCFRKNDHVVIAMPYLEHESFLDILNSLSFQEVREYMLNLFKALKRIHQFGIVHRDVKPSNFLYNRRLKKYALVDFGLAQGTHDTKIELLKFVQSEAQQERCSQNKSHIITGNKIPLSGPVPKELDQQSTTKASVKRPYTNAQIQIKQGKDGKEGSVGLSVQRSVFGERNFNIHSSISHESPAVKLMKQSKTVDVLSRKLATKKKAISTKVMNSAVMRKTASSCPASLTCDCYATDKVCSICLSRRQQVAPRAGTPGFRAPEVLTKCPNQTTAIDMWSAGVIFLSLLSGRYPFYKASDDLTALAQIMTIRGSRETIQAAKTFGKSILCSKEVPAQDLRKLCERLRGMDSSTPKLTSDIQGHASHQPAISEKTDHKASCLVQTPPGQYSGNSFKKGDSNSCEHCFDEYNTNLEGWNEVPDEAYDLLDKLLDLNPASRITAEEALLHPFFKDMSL
Sequence of Cdc7 (Q9UBU7 whole entry partner): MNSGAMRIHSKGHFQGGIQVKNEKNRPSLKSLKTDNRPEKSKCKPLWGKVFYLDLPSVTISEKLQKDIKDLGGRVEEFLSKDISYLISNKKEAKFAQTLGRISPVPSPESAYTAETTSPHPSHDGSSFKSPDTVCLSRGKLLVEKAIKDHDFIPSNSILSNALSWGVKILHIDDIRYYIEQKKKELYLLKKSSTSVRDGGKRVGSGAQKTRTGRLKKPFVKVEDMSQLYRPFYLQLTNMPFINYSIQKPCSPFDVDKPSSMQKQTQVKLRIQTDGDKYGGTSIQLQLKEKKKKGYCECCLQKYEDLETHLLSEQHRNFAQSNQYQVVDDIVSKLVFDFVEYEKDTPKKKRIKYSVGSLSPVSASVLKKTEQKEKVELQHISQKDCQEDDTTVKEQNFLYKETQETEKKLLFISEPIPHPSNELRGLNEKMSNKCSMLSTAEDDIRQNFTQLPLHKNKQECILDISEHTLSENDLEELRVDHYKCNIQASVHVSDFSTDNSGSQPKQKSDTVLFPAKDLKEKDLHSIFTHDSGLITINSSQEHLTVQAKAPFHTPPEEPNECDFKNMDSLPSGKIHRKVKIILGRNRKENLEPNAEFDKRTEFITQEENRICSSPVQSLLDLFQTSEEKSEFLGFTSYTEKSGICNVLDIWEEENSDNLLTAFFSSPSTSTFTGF
Sequence of Cdc7/ASK (O00311 whole entry): as the sequence (O00311 whole entry) above
Sequence of Cdc7/ASK (Q9UBU7 whole entry partner): as the sequence (Q9UBU7 whole entry partner) above

EC50 [1] [µM] | IC50 [2] [µM] | SMILES
1.1 | – | Cc1ncsc1-c1nc(N2CCN[C@@H](C(F)(F)F)C2)c(Cl)c(=O)[nH]1 [Compound 28, 5-chloro-2-(4-methylthiazol-5-yl)-4-[(3R)-3-(trifluoromethyl)piperazin-1-yl]-1H-pyrimidin-6-one]
0.316 | 0.00398 | C[C@@H]1COCCN1c1nc(-c2cn[nH]c2C(F)(F)F)[nH]c(=O)c1Cl [Compound 41, 5-chloro-4-[(3R)-3-methylmorpholin-4-yl]-2-[5-(trifluoromethyl)-1H-pyrazol-4-yl]-1H-pyrimidin-6-one]
0.347 | 0.00389 | C[C@@H]1CNCCN1c1nc(-c2cn[nH]c2Cl)[nH]c(=O)c1Cl [Compound 43, 5-chloro-2-(5-chloro-1H-pyrazol-4-yl)-4-[(2R)-2-methylpiperazin-1-yl]-1H-pyrimidin-6-one]
0.724 | 0.00617 | C[C@@H]1CNCCN1c1nc(-c2cn[nH]c2C(F)(F)F)[nH]c(=O)c1Cl [Compound 44, 5-chloro-4-[(2R)-2-methylpiperazin-1-yl]-2-[5-(trifluoromethyl)-1H-pyrazol-4-yl]-1H-pyrimidin-6-one]

Second part, the molecule before the results:

SMILES | EC50 [1] [µM] | IC50 [2] [µM]
O=c1[nH]c(-c2scnc2Cl)nc(C2CCOCC2)c1Cl [Compound 4, 5-chloro-2-(4-chlorothiazol-5-yl)-4-tetrahydropyran-4-yl-1H-pyrimidin-6-one] | 1.48 | –
Cc1ncsc1-c1nc(C2CCOCC2)c(Cl)c(=O)[nH]1 [Compound 6, 5-chloro-2-(4-methylthiazol-5-yl)-4-tetrahydropyran-4-yl-1H-pyrimidin-6-one] | 2.09 | –
O=c1[nH]c(-c2scnc2C(F)(F)F)nc(C2CCOCC2)c1Cl [Compound 14, 5-chloro-4-tetrahydropyran-4-yl-2-[4-(trifluoromethyl)thiazol-5-yl]-1H-pyrimidin-6-one] | 2.45 | –
